Laboratory results as given in patent publication US20210205336A1, “Storage-stable ready-to-use formulations of Tigecycline” (RK Pharma Solutions LLC, priority 2019, published 2021).
Where “and” joins values, the source holds several entries; their conditions need not be identical. Identical values can stand only once.

Experiment: Storage stability (purity and impurity profile) of ready-to-use tigecycline formulations at refrigeration, 2-8° C.
Format: physicochemical
Set-up: Tricyclic Impurity / Max. Unk Imp. / Oxo Impurity / Epimer Impurity / Total Impurity: unit not given here
Procedure: As used herein, and unless otherwise specified, the term “storage-stable” refers to any tigecycline-containing composition or formulation having sufficient physical and chemical stability to allow storage at a convenient temperature, such as between about 0° C. and about 50° C., for a commercially reasonable period of time. The phrase “physical stability” refers to maintenance of colour or colourless state, dissolved oxygen level, head space oxygen level and particulate matter and the phrase “chemical stability” relates to formation of drug-related impurities in terms of total impurities, single maximum individual impurity, or maximum individual unknown impurity. For pharmaceutical products, stability is required for commercially relevant times after manufacturing, such as for about 6, 12, 18, 24, or 36 months, during which time a product is kept in its original packaging under specified storage conditions. Solution A and Solution B were then further nitrogen purged for another 30 minutes and closed tightly after nitrogen flushing and covered with black cover. Solution A and solution B were stored in refrigerator (2-8° C.) for 02 hours. 100 mg tigecycline was charged in solution B followed by the addition of solution B to solution A while the solution A was kept at ice bath (e.g., about 0° C.). Now, the total 100 ml solution in the infusion bag was nitrogen purged for another 15 minutes and sealed after nitrogen flushing and stored at refrigerator (2-8° C.). […] Calcium chloride 60 mg and sodium bisulfite 2.5 mg were dissolved in 3 ml 5% dextrose for injection. The volume was made up to 5 ml with 5% dextrose solution. The solution was then nitrogen purged until dissolved oxygen reached <0.1 mg/L. 50 mg tigecycline was transferred into an amber color vial and then the 5 ml of the above solution was poured in the vial under nitrogen. The headspace of the vial was flushed through with nitrogen and packed. The vials were stored at refrigeration condition. Calcium chloride 60 mg and sodium bisulfite 2.5 mg were dissolved in 3 ml 5% dextrose. pH was adjusted to 5.5-6.0 pH range using 0.1 M meglumine solution, as required. The volume was made up to 5 ml with 5% dextrose solution. The solution was then nitrogen purged until dissolved oxygen reached <0.1 mg/L. 50 mg tigecycline was transferred into an amber colour vial and then the 5 ml of the above solution was poured in the vial under nitrogen. The headspace of the vial was flushed through with nitrogen and packed. The vials were stored at refrigeration condition. Calcium chloride 60 mg and sodium bisulfite 2.5 mg were dissolved in 3 ml 5% dextrose. pH was adjusted to 4.5-5.0 pH range using 0.1 M meglumine solution, as required. The volume was made up to 5 ml with 5% dextrose solution. The solution was then nitrogen purged until dissolved oxygen reached <0.1 mg/L. 50 mg tigecycline was transferred into an amber colour vial and then the 5 ml of the above solution was poured in the vial under nitrogen. The headspace of the vial was flushed through with nitrogen and packed. The vials were stored at refrigeration condition. Calcium chloride 60 mg and sodium bisulfite 2.5 mg were dissolved in 3 ml 0.9% NaCl Solution. The volume was made up to 5 ml with 0.9% NaCl Solution. […]

[1] = API (tigecycline before formulation)

% Purity [1]: 99.22% and 99.2% and 99.18%
Epimer Impurity [1]: 0.5 and 0.48 and 0.49
Max. Unk Imp. [1]: 0.05 and 0.04
Oxo Impurity [1]: 0.02
Tricyclic Impurity [1]: 0.03 and 0.04 and 0.05
Purity (API (tigecycline before formulation), Tables 4A-9A): 99.3
Rel. Comp. B (API (tigecycline before formulation), in % (unit assumed)): 0.01 and 0.02
Total Impurity (API column, Day 1 (tigecycline before formulation)): 0.82
SMILES: CN(C)c1cc(NC(=O)CNC(C)(C)C)c(O)c2c1C[C@H]1C[C@H]3[C@H](N(C)C)C(=O)/C(=C(\N)O)C(=O)[C@@]3(O)C(=O)C1=C2O [API, (4S,4aS,5aR,12aS)-9-[2-(tert-butylamino)acetamido]4,7-bis(dimethylamino)-1,4,4a,5,5a,6,11,12a-octahydro-3,10,12,12a-tetrahydroxy-1,11dioxo-2-naphthacenecarboxamide]
